Target: T1, Cyclin-dependent kinases regulatory subunit 1/S-phase kinase-associated protein 2 (Homo sapiens) (UniProt P61024+Q13309)
Experiment: Inhibition of GST-tagged SKP2 (unknown origin) to His6-tagged CKS1 (unknown origin) protein protein interaction at 50 umol/L by HTRF method relative to control
Type: protein assay
Details: dose 50.0 µmol/L

T1 sequence (P61024 2-79 limits assumed): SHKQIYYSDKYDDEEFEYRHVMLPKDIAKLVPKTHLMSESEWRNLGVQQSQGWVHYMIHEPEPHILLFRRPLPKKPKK
T1 sequence (Q13309 whole entry partner): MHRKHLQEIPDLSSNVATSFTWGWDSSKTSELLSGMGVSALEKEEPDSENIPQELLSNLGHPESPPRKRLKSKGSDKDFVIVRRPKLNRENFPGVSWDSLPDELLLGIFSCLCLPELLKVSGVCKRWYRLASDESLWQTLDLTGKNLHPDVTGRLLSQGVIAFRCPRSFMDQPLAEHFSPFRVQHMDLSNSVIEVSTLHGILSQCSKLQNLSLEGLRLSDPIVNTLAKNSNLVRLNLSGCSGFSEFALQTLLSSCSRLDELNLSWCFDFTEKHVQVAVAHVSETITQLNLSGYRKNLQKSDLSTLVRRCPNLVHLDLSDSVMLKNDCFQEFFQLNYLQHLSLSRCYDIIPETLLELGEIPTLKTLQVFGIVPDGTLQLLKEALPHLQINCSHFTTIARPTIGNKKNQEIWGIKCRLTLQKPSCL

Row | SMILES | inhibition
1 | COc1ccc(N2C(=O)c3ccccc3C2Cc2cc(-c3c(OC)cc(O)cc3OC)n3ncnc3n2)cc1 (configuration not stated) | 54%

Target: T2, Cyclin-dependent kinases regulatory subunit 1/S-phase kinase-associated protein 2 (Homo sapiens, UniProt Q13309)
Experiment: Inhibition of GST-tagged SKP2 (unknown origin) binding to His6-tagged CKS1 (unknown origin) incubated for 1 hr by AlphaScreen assay
Type: protein assay
Details: not given

T2 sequence (P61024 whole entry): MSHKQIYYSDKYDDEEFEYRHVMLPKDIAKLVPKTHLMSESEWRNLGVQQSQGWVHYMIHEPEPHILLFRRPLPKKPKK
T2 sequence (Q13309 whole entry): as the sequence (Q13309 whole entry partner) above

Row | SMILES | IC50
2 | O=C(OCC12CC3CC(CC(C3)C1)C2)c1ccc(NCc2cc(O)ccc2O)cc1 | 36.6 µM
3 | COC(=O)c1ccc(CCc2cc(O)ccc2O)cc1 | 36.6 µM

System: A549
Experiment: Antiproliferative activity against human A549 cells incubated for 48 hrs by MTT assay
Type: functional, cell-based
Details: A549, 48 h

Row | SMILES | IC50
4 | COc1cc(C2=NC3=NC(C)=C(C(C)=O)C(c4ccc([N+](=O)[O-])cc4)N3N2)cc(OC)c1OC (configuration not stated) | 1020 nM

Target: T1, Cyclin-dependent kinases regulatory subunit 1/S-phase kinase-associated protein 2 (Homo sapiens)
Experiment: Inhibition of GST-tagged SKP2 (unknown origin) binding to His6-tagged CKS1 (unknown origin) at 50 uM preincubated with SKP2 for 10 mins followed by CKS1 addition for 20 mins and measured after by HTRF method relative to control
Type: protein assay
Details: time 30.0 min

Row | SMILES | inhibition
5 | COc1cc(OC)c(-c2cc(C)nc3nc(SCc4cccc(Cl)c4Cl)nn23)c(OC)c1 | 7.29%
6 | COc1cc(OC)c(-c2cc(C)nc3nc(SCC4CCCC4)nn23)c(OC)c1 | 28%
7 | COc1ccccc1-c1cc(C)nc2nc(SCc3ccc(Br)cc3)nn12 | 27.2%
8 | COc1cc(OC)c(-c2cc(C)nc3nc(SCc4ccc(C(F)(F)F)cc4)nn23)c(OC)c1 | 27.1%
9 | C#CCSc1nc2nc(C)cc(-c3c(OC)cc(OC)cc3OC)n2n1 | 5.84%
10 | COc1cccc(-c2cc(C)nc3nc(SCc4ccc(Br)cc4)nn23)c1 | 58.7%
11 | COC(=O)c1cccc(Nc2cc(C)nc3nc(SCc4ccc(Br)cc4)nn23)c1 | 12.4%
12 | COc1cc(OC)c(-c2cc(C)nc3nc(SCC4CCCCC4)nn23)c(OC)c1 | 60%
13 | COc1cccc(OC)c1-c1cc(C)nc2nc(SCc3ccc(Br)cc3)nn12 | 37%
14 | COc1cc(OC)c(-c2cc(C)nc3nc(SCc4ccc(Br)cc4)nn23)c(OC)c1 | 69.6%
15 | COC(=O)c1cccc(CSc2nc3nc(C)cc(-c4c(OC)cc(OC)cc4OC)n3n2)c1 | 10.2%
16 | COc1cc(OC)c(-c2cc(C)nc3nc(SCc4ccncc4)nn23)c(OC)c1 | 10%
17 | COc1cc(OC)c(-c2cc(C)nc3nc(SCc4ccccc4)nn23)c(OC)c1 | 60%
18 | COc1cc(OC)c(-c2cc(C)nc3nc(SCc4ccccc4Br)nn23)c(OC)c1 | 43%
19 | CCSc1nc2nc(C)cc(-c3c(OC)cc(OC)cc3OC)n2n1 | 3.73%
20 | COc1cc(OC)c(-c2cc(C)nc3nc(SCc4ccc(F)cc4)nn23)c(OC)c1 | 24%
21 | COc1cc(OC)c(-c2cc(C)nc3nc(SCc4ccc(Cl)cc4)nn23)c(OC)c1 | 9.13%
22 | Cc1cc(-c2ccc(-c3ccccc3)cc2)n2nc(SCc3ccc(Br)cc3)nc2n1 | 66.2%
23 | COc1cc(OC)c(-c2cc(C)nc3nc(SCc4cccc(Br)c4)nn23)c(OC)c1 | 42.5%
24 | Cc1cc(Br)n2nc(SCc3ccc(Br)cc3)nc2n1 | 47%
25 | COc1cc(OC)c(-c2cc(C)nc3nc(SCc4cnc(Cl)s4)nn23)c(OC)c1 | 31.5%

Row | SMILES | inhibition
26 | CCCSc1nc2nc(C)cc(-c3c(OC)cc(OC)cc3OC)n2n1 | 24.5%
27 | COc1ccc(-c2cc(C)nc3nc(SCc4ccc(Br)cc4)nn23)cc1 | 34.6%
28 | COc1cc(OC)c(-c2cc(C)nc3nc(SCc4ccc(I)cc4)nn23)c(OC)c1 | 41.7%
29 | COc1cc(OC)c(-c2cc(C)nc3nc(SCc4cccc5ccccc45)nn23)c(OC)c1 | 17.4%
30 | COc1cc(-c2cc(C)nc3nc(SCc4ccc(Br)cc4)nn23)cc(OC)c1OC | 58.8%
31 | COc1cc(OC)c(-c2cc(C)nc3nc(SCC4CCOCC4)nn23)c(OC)c1 | 16.3%
32 | Cc1cc(-c2ccc(C(=O)N3CCN(C)CC3)cc2)n2nc(SCc3ccc(Br)cc3)nc2n1 | 14.6%
33 | COc1cc(OC)c(-c2cc(C)nc3nc(SCc4cccc(Cl)c4)nn23)c(OC)c1 | 15.9%
34 | COc1ccc(CSc2nc3nc(C)cc(-c4c(OC)cc(OC)cc4OC)n3n2)cc1 | 11.5%
35 | Cc1cc(-c2ccccc2)n2nc(SCc3ccc(Br)cc3)nc2n1 | 55.3%
36 | Cc1cc(-c2cccc(C(=O)N3CCN(C)CC3)c2)n2nc(SCc3ccc(Br)cc3)nc2n1 | 23.4%
37 | COC(=O)c1ccc(Nc2cc(C)nc3nc(SCc4ccc(Br)cc4)nn23)cc1 | 12.4%
38 | Cc1cc(-c2ccc3c(c2)OCCO3)n2nc(SCc3ccc(Br)cc3)nc2n1 | 37.4%
39 | COc1cc(OC)c(-c2cc(C)nc3nc(SCc4ccc(C)cc4)nn23)c(OC)c1 | 11.5%
40 | COc1cc(OC)c(-c2cc(C)nc3nc(SCC4CCC4)nn23)c(OC)c1 | 20.2%
41 | Cc1cc(-c2cccc(C(=O)O)c2)n2nc(SCc3ccc(Br)cc3)nc2n1 | 17.9%
42 | C=CCSc1nc2nc(C)cc(-c3c(OC)cc(OC)cc3OC)n2n1 | 2.51%
43 | Cc1cc(-c2ccc(C(=O)O)cc2)n2nc(SCc3ccc(Br)cc3)nc2n1 | 20.1%
44 | COc1cc(OC)c(-c2cc(C)nc3nc(SCCCc4ccccc4)nn23)c(OC)c1 | 20.3%
45 | Cc1cc(Cl)n2nc(SCc3ccc(Br)cc3)nc2n1 | 22%

System: MGC-803
Experiment: Inhibition of cell proliferation in human MGC-803 cells incubated for 72 hrs by MTT assay
Type: functional, cell-based
Details: MGC-803, 72 h

Row | SMILES | IC50
46 | O=c1[nH]cc(F)c(=O)[nH]1 [FLUOROURACIL] | 44.1 µM

System: PC-3
Experiment: Inhibition of cell proliferation in human PC-3 cells incubated for 72 hrs by MTT assay
Type: functional, cell-based
Details: PC-3, 72 h

Row | SMILES | IC50
47 | O=c1[nH]cc(F)c(=O)[nH]1 [FLUOROURACIL] | 10.2 µM

Target: T2, Cyclin-dependent kinases regulatory subunit 1/S-phase kinase-associated protein 2
Experiment: Inhibition of GST-tagged SKP2 (unknown origin) binding to His6-tagged CKS1 (unknown origin) preincubated with SKP2 for 10 mins followed by CKS1 addition for 20 mins and measured after by HTRF method
Type: protein assay
Details: not given

Row | SMILES | IC50
48 | COc1cc(OC)c(-c2cc(C)nc3nc(SCc4cccc(Cl)c4Cl)nn23)c(OC)c1 | > 100 µM
49 | COc1cc(OC)c(-c2cc(C)nc3nc(SCC4CCCC4)nn23)c(OC)c1 | 62.3 µM
50 | COc1ccccc1-c1cc(C)nc2nc(SCc3ccc(Br)cc3)nn12 | > 100 µM
51 | COc1cc(OC)c(-c2cc(C)nc3nc(SCc4ccc(C(F)(F)F)cc4)nn23)c(OC)c1 | 93.1 µM
52 | C#CCSc1nc2nc(C)cc(-c3c(OC)cc(OC)cc3OC)n2n1 | > 100 µM
53 | COc1cccc(-c2cc(C)nc3nc(SCc4ccc(Br)cc4)nn23)c1 | 40.3 µM
54 | COC(=O)c1cccc(Nc2cc(C)nc3nc(SCc4ccc(Br)cc4)nn23)c1 | > 100 µM
55 | COc1cc(OC)c(-c2cc(C)nc3nc(SCC4CCCCC4)nn23)c(OC)c1 | 17.4 µM
56 | COc1cccc(OC)c1-c1cc(C)nc2nc(SCc3ccc(Br)cc3)nn12 | 75.6 µM
57 | COc1cc(OC)c(-c2cc(C)nc3nc(SCc4ccc(Br)cc4)nn23)c(OC)c1 | 11.9 µM
58 | COC(=O)c1cccc(CSc2nc3nc(C)cc(-c4c(OC)cc(OC)cc4OC)n3n2)c1 | > 100 µM
59 | COc1cc(OC)c(-c2cc(C)nc3nc(SCc4ccncc4)nn23)c(OC)c1 | > 100 µM
60 | COc1cc(OC)c(-c2cc(C)nc3nc(SCc4ccccc4)nn23)c(OC)c1 | 14.7 µM
61 | COc1cc(OC)c(-c2cc(C)nc3nc(SCc4ccccc4Br)nn23)c(OC)c1 | 66.7 µM
62 | CCSc1nc2nc(C)cc(-c3c(OC)cc(OC)cc3OC)n2n1 | > 100 µM
63 | COc1cc(OC)c(-c2cc(C)nc3nc(SCc4ccc(F)cc4)nn23)c(OC)c1 | 98.1 µM
64 | COc1cc(OC)c(-c2cc(C)nc3nc(SCc4ccc(Cl)cc4)nn23)c(OC)c1 | > 100 µM
65 | Cc1cc(-c2ccc(-c3ccccc3)cc2)n2nc(SCc3ccc(Br)cc3)nc2n1 | 10.5 µM
66 | COc1cc(OC)c(-c2cc(C)nc3nc(SCc4cccc(Br)c4)nn23)c(OC)c1 | 61 µM
67 | Cc1cc(Br)n2nc(SCc3ccc(Br)cc3)nc2n1 | 68 µM

Row | SMILES | IC50
68 | COc1cc(OC)c(-c2cc(C)nc3nc(SCc4cnc(Cl)s4)nn23)c(OC)c1 | 72.5 µM
69 | CCCSc1nc2nc(C)cc(-c3c(OC)cc(OC)cc3OC)n2n1 | > 100 µM
70 | COc1ccc(-c2cc(C)nc3nc(SCc4ccc(Br)cc4)nn23)cc1 | 72.4 µM
71 | COc1cc(OC)c(-c2cc(C)nc3nc(SCc4cccc5ccccc45)nn23)c(OC)c1 | > 100 µM
72 | COc1cc(-c2cc(C)nc3nc(SCc4ccc(Br)cc4)nn23)cc(OC)c1OC | 30.9 µM
73 | COc1cc(OC)c(-c2cc(C)nc3nc(SCC4CCOCC4)nn23)c(OC)c1 | > 50 µM
74 | Cc1cc(-c2ccc(C(=O)N3CCN(C)CC3)cc2)n2nc(SCc3ccc(Br)cc3)nc2n1 | > 100 µM
75 | COc1cc(OC)c(-c2cc(C)nc3nc(SCc4cccc(Cl)c4)nn23)c(OC)c1 | > 100 µM
76 | COc1ccc(CSc2nc3nc(C)cc(-c4c(OC)cc(OC)cc4OC)n3n2)cc1 | > 100 µM
77 | Cc1cc(-c2ccccc2)n2nc(SCc3ccc(Br)cc3)nc2n1 | 45.1 µM
78 | Cc1cc(-c2cccc(C(=O)N3CCN(C)CC3)c2)n2nc(SCc3ccc(Br)cc3)nc2n1 | > 100 µM
79 | COC(=O)c1ccc(Nc2cc(C)nc3nc(SCc4ccc(Br)cc4)nn23)cc1 | > 100 µM
80 | Cc1cc(-c2ccc3c(c2)OCCO3)n2nc(SCc3ccc(Br)cc3)nc2n1 | 70.9 µM
81 | COc1cc(OC)c(-c2cc(C)nc3nc(SCc4ccc(C)cc4)nn23)c(OC)c1 | > 100 µM
82 | COc1cc(OC)c(-c2cc(C)nc3nc(SCC4CCC4)nn23)c(OC)c1 | 82.5 µM
83 | Cc1cc(-c2cccc(C(=O)O)c2)n2nc(SCc3ccc(Br)cc3)nc2n1 | > 100 µM
84 | C=CCSc1nc2nc(C)cc(-c3c(OC)cc(OC)cc3OC)n2n1 | > 100 µM
85 | Cc1cc(-c2ccc(C(=O)O)cc2)n2nc(SCc3ccc(Br)cc3)nc2n1 | > 100 µM
86 | COc1cc(OC)c(-c2cc(C)nc3nc(SCCCc4ccccc4)nn23)c(OC)c1 | > 100 µM
87 | Cc1cc(Cl)n2nc(SCc3ccc(Br)cc3)nc2n1 | 75.1 µM
